pIC50: −log10 of the molar value. Several values for one entry are separate records, joined by “and”; a condition that tells them apart may be missing. Equal entries are not always repeated. Where two headings read alike, the source gives them in different places.
Columns and labels:
[1] = system: RNA polymerase II Serine 5 phosphorylation in A549 cells overexpressing CDK7 mutant (C312S); assay: Imaging-based cellular RNA PolII Ser5 phosphorylation assay in A549 cells overexpressing CDK7-mutant (C312S); assay type: cell-based, human; conditions: for IC50: Homo sapiens, A549, A549 cells overexpressing CDK7 mutant (C312S), read-out: CDK7_ A549 mutant hCDK7(pIC50) (converted); for CDK7_ A549 mutant hCDK7(pIC50): A549 cells overexpressing CDK7 mutant (C312S)
How it was run: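 A stably transduced A549 pool overexpressing CDK7 C312S, a mutant that blocks covalent binding at Cys312, while retaining endogenous wild-type CDK7 was used. Ser5 phosphorylation was measured by imaging, and IC50 values were derived.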

[2] = system: RNA polymerase II Serine 5 phosphorylation (CDK7) in A549 cells
[3] = target: CDK7/cyclinH/MAT1 trimeric complex (Homo sapiens (Human), UniProt P50613); assay: In vitro CDK7 assay, potency of irreversible covalent inhibitors (kinact/KI); conditions: for kinact: read-out: CDK7 (20 nM enz.) (kinact, s^−1), 20 nM enz.
Chain of CDK7/cyclinH/MAT1 trimeric complex (P50613 whole entry): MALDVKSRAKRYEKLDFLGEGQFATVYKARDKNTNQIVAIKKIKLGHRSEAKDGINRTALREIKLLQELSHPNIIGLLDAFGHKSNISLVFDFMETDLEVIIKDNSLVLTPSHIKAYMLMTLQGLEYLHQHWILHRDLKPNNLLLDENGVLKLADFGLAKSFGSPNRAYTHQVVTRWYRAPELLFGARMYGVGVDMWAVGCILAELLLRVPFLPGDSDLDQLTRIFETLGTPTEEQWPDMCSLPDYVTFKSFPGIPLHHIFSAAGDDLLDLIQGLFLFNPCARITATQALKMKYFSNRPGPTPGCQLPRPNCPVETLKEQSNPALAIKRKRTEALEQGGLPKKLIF
Chain of CDK7/cyclinH/MAT1 trimeric complex (P51946 whole entry partner): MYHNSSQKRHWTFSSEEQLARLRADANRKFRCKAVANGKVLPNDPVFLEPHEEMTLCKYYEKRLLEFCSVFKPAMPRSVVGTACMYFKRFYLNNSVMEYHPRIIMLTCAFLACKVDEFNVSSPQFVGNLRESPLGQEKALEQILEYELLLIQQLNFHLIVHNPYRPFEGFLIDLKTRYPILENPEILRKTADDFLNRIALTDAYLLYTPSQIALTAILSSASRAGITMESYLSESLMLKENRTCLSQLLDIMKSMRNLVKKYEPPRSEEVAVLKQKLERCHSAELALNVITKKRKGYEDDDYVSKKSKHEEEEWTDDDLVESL
Chain of CDK7/cyclinH/MAT1 trimeric complex (P51948 whole entry partner): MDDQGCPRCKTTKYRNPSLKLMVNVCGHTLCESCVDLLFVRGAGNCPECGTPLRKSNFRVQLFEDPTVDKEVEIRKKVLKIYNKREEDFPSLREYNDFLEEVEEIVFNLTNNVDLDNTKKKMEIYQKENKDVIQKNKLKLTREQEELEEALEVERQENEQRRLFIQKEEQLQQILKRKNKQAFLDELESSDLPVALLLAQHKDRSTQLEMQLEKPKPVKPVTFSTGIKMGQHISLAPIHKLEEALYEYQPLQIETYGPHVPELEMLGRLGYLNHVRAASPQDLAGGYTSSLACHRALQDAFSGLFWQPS

[4] = CDK7 (20 nM enz.) (KI, μM), 20 nM enz.
[5] = read-out: CDK7 (20 nM enz.) (kobs/[I], M^−1*s^−1), 20 nM enz.
[6] = read-out: CDK7 (20 nM enz.) (kinact/ KI, M^−1*s^−1), 20 nM enz.

Structure (SMILES)	IC50 [1] [µM]	melting point [°C]	pIC50 [2]	CDK7 (20 nM enz.) (kinact, s^−1) ([3]; 20 nM enz.) [s⁻¹]	CDK7 (20 nM enz.) (kobs/[I], M^−1*s^−1) ([3]; 20 nM enz.) [M⁻¹ s⁻¹]	Ki [3, 4]	kinact [3] [s⁻¹]	kinact/KI [3, 5] [M⁻¹ s⁻¹]	CDK7_ A549 mutant hCDK7(pIC50) [1]	Ki ([3]; CDK7 (KI(μM)), Table B)	kinact/KI [3, 6] [M⁻¹ s⁻¹]	CDK7 (20 nM enz.) (kinact/ KI, M^−1*s^−1) ([3]; 20 nM enz.) [M⁻¹ s⁻¹]
CC#CC(=O)N1CCC(N2CC(c3cc(C)c4c(c3)Nc3ncnc(N5CCS(=O)(=O)CC5)c3C(C)O4)C2)CC1 (racemic) [compound 123]	8.32	218	7.30	–	–	–	–	–	–	–	–	–
C=CC(=O)N1CC[C@H](N2CC(c3cc(C)c4c(c3)Nc3ncnc(N5CCS(=O)(=O)CC5)c3CO4)C2)C1 [compound 90]	~10	232	6.60	–	–	–	–	–	–	–	–	–
CC#CC(=O)N1CCC(N2CC(c3cc(C)c4c(c3)Nc3ncnc(N5CCS(=O)(=O)CC5)c3[C@@H](C)O4)C2)CC1 (single isomer, unassigned) [compound 124]	> 10	292	6.60 and 6.86	–	–	–	–	–	–	–	–	–
C=CC(=O)N1CCN(C2CN(c3ccc4c(c3)Nc3ncnc(N5CCOCC5)c3CO4)C2)CC1 [compound 4]	> 10	151	< 5.00	–	–	–	–	–	–	–	–	–
C=CC(=O)N1CC(N2CCC(c3cc(C)c4c(c3)Nc3ncnc(N5CCS(=O)(=O)CC5)c3CO4)CC2)C1 [compound 101]	> 10	169	–	8.74e-05	1455	0.077 µM and 0.0323 µM	5.87e-05	1460	–	–	–	–
C=CC(=O)N1CCC(N2CC(c3cc(C)c4c(c3)Nc3ncnc(N5CCS(=O)(=O)CC5)c3[C@H](C)O4)C2)CC1 (single isomer, unassigned) [compound 100]	~6.61	226	–	–	–	–	–	–	5.25 and 5.24 and 5.16	–	–	–
C=CC(=O)N1CC(N2CCC(c3ccc4c(c3)Nc3ncnc(N5CCOCC5)c3CO4)CC2)C1 [compound 1]	> 10	184	–	–	–	0.389 µM	9.1e-05	–	–	0.598 µM and 0.167 µM and 0.608 µM and 0.285 µM	234	–
CC#CC(=O)N1CCC(N2CC(c3cc(C)c4c(c3)Nc3ncnc(N5CCS(=O)(=O)CC5)c3[C@H](C)O4)C2)CC1 (single isomer, unassigned) [compound 125]	6.76	203	~7.75 and ~7.57	–	–	–	–	–	5.26	–	–	–
C=CC(=O)N1CCC(N2CC(c3cc(C)c4c(c3)Nc3ncnc(N5CCOCC5)c3CO4)C2)C(F)C1 (centres unmarked) [compound 28]	> 10	–	6.12	–	–	0.686 µM	8.88e-05	–	–	–	129	–
C=CC(=O)N1CC(N2CCC(c3cc4c(cn3)O[C@@H](C)c3c(ncnc3N3CCOCC3)N4)CC2)C1 (single isomer, unassigned) [compound 62]	> 3.98	253	–	4.79e-05	–	0.504 µM and 2.05 µM	5.74e-05	–	<5.4	–	–	–
C=CC(=O)N1CCC(N2CCC(c3cc(C)c4c(c3)Nc3ncnc(N5CCOCC5)c3CO4)CC2)C1 (centres unmarked) [compound 11]	8.91	–	6.54	–	–	0.0411 µM	3.59e-05	–	–	–	874	–
CC#CC(=O)N1CC(N2CCC(c3cc4c(c(C)n3)O[C@@H](C)c3c(ncnc3N3CCS(=O)(=O)CC3)N4)CC2)C1 (single isomer, unassigned) [compound 140]	> 10	–	5.50	–	–	2.57 µM	8.1e-05	–	–	–	31.5	–
C=CC(=O)N1CC[C@@H](N2CCC(c3cc(C)c4c(c3)Nc3ncnc(N5CCOCC5)c3CO4)CC2)C1 [compound 13]	> 10	–	6.56 and 6.63	8.3e-05	–	0.0781 µM and 0.315 µM	5.64e-05	–	–	–	–	–
C=CC(=O)N1CCC(N2CCC(c3cc(C)c4c(c3)Nc3ncnc(N5CCS(=N)(=O)CC5)c3CO4)CC2)C1 (centres unmarked) [compound 104]	> 10	–	7.30	–	–	–	–	1140	–	–	–	–
C=CC(=O)N1CC[C@H](N2CC(c3cc(C)c4c(c3)Nc3ncnc(N5CCS(=O)(=O)CC5)c3[C@@H](C)O4)C2)C1 (single isomer, unassigned) [compound 121]	–	–	7.55 and ~7.50	–	1089.23	–	–	–	<5	–	–	611.255
C=CC(=O)N1CC(N2CCC(c3cc(C#N)c4c(c3)Nc3ncnc(N5CCOCC5)c3CO4)CC2)C1 [compound 106]	> 10	–	6.61	–	–	0.0858 µM	6.75e-05	–	–	–	786	–
C=CC(=O)N1CC[C@@H](N2CC(c3cc(C)c4c(c3)Nc3ncnc(N5CCS(=O)(=O)CC5)c3CO4)C2)C1 [compound 92]	> 10	241	6.37	–	–	–	–	–	–	–	–	–

Structure (SMILES)	IC50 [1] [µM]	melting point [°C]	pIC50 [2]	CDK7 (20 nM enz.) (kinact, s^−1) ([3]; 20 nM enz.) [s⁻¹]	CDK7 (20 nM enz.) (kobs/[I], M^−1*s^−1) ([3]; 20 nM enz.) [M⁻¹ s⁻¹]	Ki [3, 4]	kinact [3] [s⁻¹]	kinact/KI [3, 5] [M⁻¹ s⁻¹]	CDK7_ A549 mutant hCDK7(pIC50) [1]	Ki ([3]; CDK7 (KI(μM)), Table B)	kinact/KI [3, 6] [M⁻¹ s⁻¹]	CDK7 (20 nM enz.) (kinact/ KI, M^−1*s^−1) ([3]; 20 nM enz.) [M⁻¹ s⁻¹]
C=CC(=O)N1CC(N2CC(c3cc(C)c4c(c3)Nc3ncnc(N5CCOCC5)c3C(C)O4)C2)C1 (centres unmarked) [compound 103]	> 10	–	~5.99	–	–	0.32 µM	5.08e-05	–	–	–	159	–
C=CC(=O)N1CC(N2CCC(c3cc(C)c4c(c3)Nc3ncnc(N5CCCC(C#N)C5)c3CO4)CC2)C1 (centres unmarked) [compound 67]	> 10	–	5.88	–	–	1.2 µM	0.000103	–	–	–	85.8	–
C=CC(=O)N1CC(N2CCC(c3cc4c(c(C5CC5)c3)OCc3c(ncnc3N3CCOCC3)N4)CC2)C1 [compound 47]	> 10	–	6.61	–	–	0.175 µM	7.35e-05	–	–	–	420	–
C=CC(=O)N1CC[C@H](N2CC(c3cc(C)c4c(c3)Nc3ncnc(N5CCS(=O)(=O)CC5)c3[C@H](C)O4)C2)C1 (single isomer, unassigned) [compound 116]	> 10	–	6.72 and 6.57	3.89e-05	–	0.3 µM and 0.189 µM	4.57e-05	–	<5	–	152	206.471
CC#CC(=O)N1CCC(N2CC=C(c3cc(C)c4c(c3)Nc3ncnc(N5CCS(=O)(=O)CC5)c3CO4)CC2)CC1 [compound 138]	> 10	–	7.33	–	–	0.0908 µM	7.15e-05	–	–	–	788	–
C=CC(=O)N1CC(N2CC=C(c3ccc4c(c3)Nc3ncnc(N5CCOCC5)c3CO4)CC2)C1 [compound 33]	> 10	193	5.63	–	–	–	–	–	–	–	–	–
C=CC(=O)N1CCC(N2CC(c3cc(C)c4c(c3)Nc3ncnc(N5CCS(=O)(=O)CC5)c3[C@@H](C)O4)C2)CC1 (single isomer, unassigned) [compound 102]	> 10	227	6.73 and 6.76 and 6.82 and 6.83	–	–	–	–	–	–	–	–	–
C#Cc1cc(C2CCN(C3CN(C(=O)C#CC)C3)CC2)cc2c1O[C@@H](C)c1c(ncnc1N1CCS(=O)(=O)CC1)N2 [compound 191]	> 10	–	6.72	–	–	0.1 µM	8.29e-05	–	–	–	809	–
C=CC(=O)N1CC(N2CC[C@@H](c3cc(C)c4c(c3)Nc3ncnc(N5CCOCC5)c3CO4)C2)C1 [compound 22]	> 10	–	~6.21	–	–	0.208 µM	6.38e-05	–	–	–	307	–
C=CC(=O)N1CCC(N2CC(c3cc(C)c4c(c3)Nc3ncnc(N5CCOCC5)c3CO4)C2)C(F)C1 (centres unmarked) [compound 29]	–	–	5.95	7.3e-05	–	0.78 µM	–	–	<5	–	–	93.6387
C=CC(=O)N1CCC(N2CC(c3cc(Cl)c4c(c3)Nc3ncnc(C5CCOCC5)c3CO4)C2)CC1 [compound 19]	> 10	–	6.06	–	–	0.542 µM	8.14e-05	–	–	–	150	–
C=CC(=O)N1CCC(N2CC(c3cc(F)c4c(c3)Nc3ncnc(N5CCOCC5)c3[C@H](C)O4)C2)CC1 [compound 26]	> 10	–	6.54	–	–	0.336 µM	4.84e-05	–	–	–	203	–
C#Cc1cc(C2CCN(C3CN(C(=O)C=C)C3)CC2)cc2c1O[C@H](C)c1c(ncnc1N1CCS(=O)(=O)CC1)N2 (single isomer, unassigned) [compound 189]	> 10	–	6.71 and 6.70	–	–	0.0806 µM	8.1e-05	–	–	–	879	–
C=CC(=O)N1CC[C@@H](N2CC(c3cc(C)c4c(c3)Nc3ncnc(N5CCOCC5)c3CO4)C2)C1 [compound 17]	> 10	–	6.42	–	–	0.716 µM	6.7e-05	–	–	–	93.7	–
CC#CC(=O)N1CC(C)(N2CCC(c3cc(C)c4c(c3)Nc3ncnc(N5CCS(=O)(=O)CC5)c3[C@@H](C)O4)CC2)C1 [compound 144]	> 10	–	~7.33	–	–	0.00389 µM	4.73e-05	–	–	–	12200	–
C=CC(=O)N1CC[C@@H](N2CC(c3cc(F)c4c(c3)Nc3ncnc(N5CCOCC5)c3CO4)C2)C1 (single isomer, unassigned) [compound 55]	> 10	–	6.03	–	–	1.04 µM	6.83e-05	–	–	–	65.7	–
CC#CC(=O)N1CCC(C)(N2CC(c3cc(C)c4c(c3)Nc3ncnc(N5CCS(=O)(=O)CC5)c3[C@@H](C)O4)C2)C1 (mixture of isomers) [compound 147]	> 10	244	6.51	–	–	–	–	–	–	–	–	–
